For orientation: IC50 means the concentration that inhibits the measured activity by half. Higher therefore signals weaker potency.

The target of this assay is Endothelial lipase (EL) (Homo sapiens (Human), UniProt Q9Y5X9). The assay is described as follows: Endothelial lipase (EL) enzymatic assay with fluorescent substrate A10070 in DMPG vesicles. In kind it is biochemical. Summed up: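 Compounds were preincubated with enzyme for 30 min at 37° C before FRET-substrate vesicles (A10070 in DMPG, 0.11 mole fraction) were added. Reaction rates were obtained from the 300–900 sec slope of fluorescence at 490/530 nm.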
Sequence of Endothelial lipase (EL) (Q9Y5X9 21-500): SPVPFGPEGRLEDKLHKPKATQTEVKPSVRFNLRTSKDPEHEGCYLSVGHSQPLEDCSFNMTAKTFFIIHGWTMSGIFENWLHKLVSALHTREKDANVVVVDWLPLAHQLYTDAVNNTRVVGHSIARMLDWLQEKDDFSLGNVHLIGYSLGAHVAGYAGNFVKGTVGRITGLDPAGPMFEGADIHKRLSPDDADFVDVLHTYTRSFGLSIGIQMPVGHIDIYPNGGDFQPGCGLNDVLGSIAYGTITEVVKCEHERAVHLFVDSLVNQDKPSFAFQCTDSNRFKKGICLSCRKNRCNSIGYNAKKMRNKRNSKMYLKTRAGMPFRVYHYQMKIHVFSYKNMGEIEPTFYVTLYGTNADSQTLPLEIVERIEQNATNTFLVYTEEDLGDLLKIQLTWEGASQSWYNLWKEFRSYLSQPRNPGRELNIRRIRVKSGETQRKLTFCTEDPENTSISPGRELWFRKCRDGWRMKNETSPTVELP

In turn, `COCCS(=O)(=O)C(C(=O)NCC(=O)NC1CC1)c1nc2ccc(-c3ccnn3C)cc2s1` (stereo not shown) [Example 313, N-[(cyclopropyl-carbamoyl)methyl]-2-(2-methoxyethane-sulfonyl)-2-[6-(1-methyl-1H-pyrazol-5-yl)-1,3-benzothiazol-2-yl]acetamide] came in with a half-maximal inhibitory concentration (IC50) of 313 nM. `COCCS(=O)(=O)C(C(=O)NCC(=O)NC1CC1)c1nc2ccc(-c3cccc(F)n3)cc2s1` (stereo not shown) [Example 314, N-[(cyclopropyl-carbamoyl)methyl]-2-[6-(6-fluoropyridin-2-yl)-1,3-benzothiazol-2-yl]-2-(2-methoxyethane-sulfonyl)acetamide] yielded a concentration for half-maximal inhibition (IC50) of 150 nM. Take `COCCS(=O)(=O)C(C(=O)NCC(=O)NC1CC1)c1nc2ccc(-c3ccc(=O)n(C)c3)cc2s1` (stereo not shown) [Example 315, N-[(cyclopropyl-carbamoyl)methyl]-2-(2-methoxyethane-sulfonyl)-2-[6-(1-methyl-6-oxo-1,6-dihydropyridin-3-yl)-1,3-benzothiazol-2-yl}acetamide]: 12 nM corresponded to half-maximal inhibition (IC50). Regarding `COCCS(=O)(=O)C(C(=O)NCC(=O)NC1CC1)c1nc2ccc(-c3ccn(C)c(=O)c3)cc2s1` (stereo not shown) [Example 316, N-[(cyclopropyl-carbamoyl)methyl]-2-(2-methoxyethane-sulfonyl)-2-[6-(1-methyl-2-oxo-1,2-dihydropyridin-4-yl)-1,3-benzothiazol-2-yl]acetamide], inhibition was half-maximal at 13 nM (IC50). As for `COCCS(=O)(=O)C(C(=O)NCC(=O)NC1CC1)c1nc2ccc(-c3cc(C)nn3C)cc2s1` (stereo not shown) [Example 317, N-[(cyclopropyl-carbamoyl)methyl]-2-[6-(1,3-dimethyl-1H-pyrazol-5-yl)-1,3-benzothiazol-2-yl]-2-(2-methoxyethane-sulfonyl)acetamide], the IC50 came out at 4 nM. Under `COCCS(=O)(=O)C(C(=O)NCC(=O)NC1CC1)c1nc2ccc(-c3cccnc3F)cc2s1` (stereo not shown) [Example 318, N-[(cyclopropyl-carbamoyl)methyl]-2-[6-(2-fluoropyridin-3-yl)-1,3-benzothiazol-2-yl]-2-(2-methoxyethane-sulfonyl)acetamide] stands 7 nM. `Cc1cc(F)ncc1-c1cc2sc(C(C(=O)NCC(=O)NC3CC3)S(C)(=O)=O)nc2cc1F` (stereo not shown) [Example 319, N-[(cyclopropyl-carbamoyl)methyl]-2-[5-fluoro-6-(6-fluoro-4-methylpyridin-3-yl)-1,3-benzothiazol-2-yl]-2-methanesulfonyl-acetamide] displayed a 50% inhibitory concentration (IC50) of 15 nM. Under `CS(=O)(=O)C(C(=O)NCC(=O)NC1CC1)c1nc2cc(F)c(-c3ccnc(F)c3)cc2s1` (stereo not shown) [Example 321, N-[(cyclopropyl-carbamoyl)methyl]-2-[5-fluoro-6-(2-fluoropyridin-4-yl)-1,3-benzothiazol-2-yl]-2-methanesulfonyl-acetamide] stands 14 nM. Under `COc1ncccc1-c1cc2sc(C(C(=O)NCC(=O)NC3CC3)S(C)(=O)=O)nc2cc1F` (stereo not shown) [Example 322, N-[(cyclopropyl-carbamoyl)methyl]-2-[5-fluoro-6-(2-methoxypyridin-3-yl)-1,3-benzothiazol-2-yl]-2-methanesulfonyl-acetamide] stands 5 nM; under `CS(=O)(=O)C(C(=O)NCC(=O)NC1CC1)c1nc2cc(F)c(-c3cncc(F)c3)cc2s1` (stereo not shown) [Example 323, N-[(cyclopropyl-carbamoyl)methyl]-2-[5-fluoro-6-(5-fluoropyridin-3-yl)-1,3-benzothiazol-2-yl]-2-methanesulfonyl-acetamide], 23 nM; under `COc1cncc(-c2cc3sc(C(C(=O)NCC(=O)NC4CC4)S(C)(=O)=O)nc3cc2F)c1` (stereo not shown) [Example 324, N-[(cyclopropyl-carbamoyl)methyl]-2-[5-fluoro-6-(5-methoxypyridin-3-yl)-1,3-benzothiazol-2-yl]-2-methanesulfonyl-acetamide], 15 nM. Under `CS(=O)(=O)C(C(=O)NCC(=O)NC1CC1)c1nc2cc(F)c(-c3ccnc(C(F)(F)F)c3)cc2s1` (stereo not shown) [Example 325, N-[(cyclopropyl-carbamoyl)methyl]-2-{5-fluoro-6-[2-(trifluoromethyl)pyridin-4-yl]-1,3-benzothiazol-2-yl}-2-methanesulfonyl-acetamide] stands 15 nM; under `CS(=O)(=O)C(C(=O)NCC(=O)NC1CC1)c1nc2cc(F)c(-c3cccnc3C(F)(F)F)cc2s1` (stereo not shown) [Example 326, N-[(cyclopropyl-carbamoyl)methyl]-2-{5-fluoro-6-[2-(trifluoromethyl)pyridin-3-yl]-1,3-benzothiazol-2-yl}-2-methanesulfonyl-acetamide], 65 nM; under `CS(=O)(=O)C(C(=O)NCC(=O)NC1CC1)c1nc2cc(F)c(-c3cccc(C(N)=O)c3)cc2s1` (stereo not shown) [Example 327, 3-[2-({[(cyclopropyl-carbamoyl)methyl]carbamoyl} (methanesulfonyl)methyl)-5-fluoro-1,3-benzothiazol-6-yl]benzamide], 19 nM. `CS(=O)(=O)C(C(=O)NCC(=O)NC1CC1)c1nc2cc(F)c(-c3ccc(C(N)=O)c(Cl)c3)cc2s1` (stereo not shown) [Example 328, 2-chloro-4-[2-({[(cyclopropyl-carbamoyl)methyl]carbamoyl} (methanesulfonyl)methyl)-5-fluoro-1,3-benzothiazol-6-yl]benzamide] returned a half-inhibitory concentration (IC50) of 22 nM. On to `COCCS(=O)(=O)C(C(=O)NCC(=O)NC1CC1)c1nc2ccc(-c3ccc(C(N)=O)cc3)cc2s1` (stereo not shown) [Example 329, 4-[2-({[(cyclopropyl-carbamoyl)methyl]carbamoyl}(2-methoxyethane-sulfonyl)methyl)-1,3-benzothiazol-6-yl]benzamide], for which the IC50 came out at 46 nM. Turning to `CS(=O)(=O)C(C(=O)NCC(=O)NC1CC1)c1nc2cc(F)c(-c3ccc(C(N)=O)cc3)cc2s1` (stereo not shown) [Example 331, 4-[2-({[(cyclopropyl-carbamoyl)methyl]carbamoyl} (methanesulfonyl)methyl)-5-fluoro-1,3-benzothiazol-6-yl]benzamide], the IC50 came out at 4 nM. Consider `COCCS(=O)(=O)C(C(=O)NCC(=O)NC1CC1)c1nc2cc(-c3ccc(CNC(C)=O)cc3)ccc2s1` (stereo not shown) [Example 332, N-[(cyclopropyl-carbamoyl)methyl]-2-{5-[4-(acetamidomethyl)phenyl]-1,3-benzothiazol-2-yl}-2-(2-methoxyethane-sulfonyl)acetamide], for which half-maximal inhibition (IC50) required 10 nM. For `CS(=O)(=O)C(C(=O)NCC(=O)NC1CC1)c1nc2cc(-c3ccc(F)nc3)ccc2s1` (stereo not shown) [Example 333, N-[(cyclopropyl-carbamoyl)methyl]-2-[5-(6-fluoropyridin-3-yl)-1,3-benzothiazol-2-yl]-2-methanesulfonyl-acetamide], 13 nM corresponded to half-maximal inhibition (IC50).

In turn, `COCCNC(=O)c1ccc(-c2ccc3sc(C(C(=O)NCC(=O)NC4CC4)S(=O)(=O)CCOC)nc3c2)cc1` (stereo not shown) [Example 334, 4-[2-({[(cyclopropyl-carbamoyl)methyl]carbamoyl}(2-methoxyethane-sulfonyl)methyl)-1,3-benzothiazol-5-yl]-N-(2-methoxyethyl) benzamide] had an IC50 of 15 nM. Under `COCCS(=O)(=O)C(C(=O)NCC(=O)NC1CC1)c1nc2cc(-c3cncnc3)ccc2s1` (stereo not shown) [Example 335, N-[(cyclopropyl-carbamoyl)methyl]-2-(2-methoxyethane-sulfonyl)-2-[5-(pyrimidin-5-yl)-1,3-benzothiazol-2-yl]acetamide] stands 16 nM; under `COCCS(=O)(=O)C(C(=O)NCC(=O)NC1CC1)c1nc2cc(-c3ccn(C)c(=O)c3)ccc2s1` (stereo not shown) [Example 336, N-[(cyclopropyl-carbamoyl)methyl]-2-(2-methoxyethane-sulfonyl)-2-[5-(1-methyl-2-oxo-1,2-dihydropyridin-4-yl)-1,3-benzothiazol-2-yl]acetamide], 21 nM. Regarding `COCCS(=O)(=O)C(C(=O)NCC(=O)NC1CC1)c1nc2cc(-c3ccc(C(=O)N4CCOCC4)cc3)ccc2s1` (stereo not shown) [Example 337, N-[(cyclopropyl-carbamoyl)methyl]-2-(2-methoxyethane-sulfonyl)-2-{5-[4-(morpholine-4-arbonyl)phenyl]-1,3-benzothiazol-2-yl}acetamide], half-maximal inhibition (IC50) was put at 38 nM. `COCCS(=O)(=O)C(C(=O)NCC(=O)NC1CC1)c1nc2cc(-c3ccc(COC)cc3)ccc2s1` (stereo not shown) [Example 338, N-[(cyclopropyl-carbamoyl)methyl]-2-(2-methoxyethane-sulfonyl)-2-{5-[4-(methoxymethyl)phenyl]-1,3-benzothiazol-2-yl}acetamide] returned an IC50 of 42 nM. As to `COCCS(=O)(=O)C(C(=O)NCC(=O)NC1CC1)c1nc2cc(-c3ccccc3)ccc2s1` (stereo not shown) [Example 339, N-[(cyclopropyl-carbamoyl)methyl]-2-(2-methoxyethane-sulfonyl)-2-(5-phenyl-1,3-benzothiazol-2-yl)acetamide], the IC50 was 215 nM. On to `COCCS(=O)(=O)C(C(=O)NCC(=O)NC1CC1)c1nc2ccc(-c3ccc4c(c3)CNC4=O)cc2s1` (stereo not shown) [Example 340, N-[(cyclopropyl-carbamoyl)methyl]-2-(2-methoxyethane-sulfonyl)-2-[6-(1-oxo-2,3-dihydro-1H-isoindol-5-yl)-1,3-benzothiazol-2-yl]acetamide], for which the IC50 worked out at 9 nM. In turn, `COCCS(=O)(=O)C(C(=O)NCC(=O)NC1CC1)c1nc2ccc(-c3ccc4c(c3)COC4=O)cc2s1` (stereo not shown) [Example 341, N-[(cyclopropyl-carbamoyl)methyl]-2-(2-methoxyethane-sulfonyl)-2-[6-(1-oxo-1,3-dihydro-2-benzofuran-5-yl)-1,3-benzothiazol-2-yl]acetamide] gave an IC50 of 11 nM. On to `COCCS(=O)(=O)C(C(=O)NCC(=O)NC1CC1)c1nc2cc(-c3ccn(C)c(=O)c3)c(F)cc2s1` (stereo not shown) [Example 342, N-[(cyclopropyl-carbamoyl)methyl]-2-[6-fluoro-5-(1-methyl-2-oxo-1,2-dihydropyridin-4-yl)-1,3-benzothiazol-2-yl]-2-(2-methoxyethane-sulfonyl)acetamide], for which half-maximal inhibition (IC50) was put at 23 nM.
